According to patent publication US10669273B2, “Use of aza-tryptanthrin derivatives as inhibitors of IDO1 and/or TDO” (Peking University, priority 2016, dated 2020):
Where a name gives a salt, the structure may show the parent alone. Read-outs that look alike come from different tables or passages of the source.

Assays:
[1] = tested on: T cells; settings: cited from earlier work
[2] = tested on: TNF-α; settings: concentration up to 20 μM; cited from earlier work
[3] = target: IDO-1 (Homo sapiens (Human), UniProt P14902); assay: Indoleamine-2,3-dioxygenase 1 inhibitory activity (absorbance at 321 nm); assay type: biochemical
Sequence of IDO-1 (P14902 whole entry): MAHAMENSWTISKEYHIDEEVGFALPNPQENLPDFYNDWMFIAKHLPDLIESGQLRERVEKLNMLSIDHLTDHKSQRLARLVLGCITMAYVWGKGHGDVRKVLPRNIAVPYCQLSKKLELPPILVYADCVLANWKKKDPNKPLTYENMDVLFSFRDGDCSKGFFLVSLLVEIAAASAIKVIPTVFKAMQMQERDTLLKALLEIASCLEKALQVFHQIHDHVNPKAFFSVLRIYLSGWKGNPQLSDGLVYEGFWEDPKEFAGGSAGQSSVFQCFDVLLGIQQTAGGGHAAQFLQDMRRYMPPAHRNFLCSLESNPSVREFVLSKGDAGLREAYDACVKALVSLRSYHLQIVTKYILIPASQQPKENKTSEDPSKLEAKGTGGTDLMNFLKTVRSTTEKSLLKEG

[4] = target: TDO (Homo sapiens (Human), UniProt P48775); assay: Tryptophan-2,3-dioxygenase inhibitory activity (absorbance at 321 nm); assay type: biochemical; settings: read-out: TDO Inhibition rate
Sequence of TDO (P48775 whole entry): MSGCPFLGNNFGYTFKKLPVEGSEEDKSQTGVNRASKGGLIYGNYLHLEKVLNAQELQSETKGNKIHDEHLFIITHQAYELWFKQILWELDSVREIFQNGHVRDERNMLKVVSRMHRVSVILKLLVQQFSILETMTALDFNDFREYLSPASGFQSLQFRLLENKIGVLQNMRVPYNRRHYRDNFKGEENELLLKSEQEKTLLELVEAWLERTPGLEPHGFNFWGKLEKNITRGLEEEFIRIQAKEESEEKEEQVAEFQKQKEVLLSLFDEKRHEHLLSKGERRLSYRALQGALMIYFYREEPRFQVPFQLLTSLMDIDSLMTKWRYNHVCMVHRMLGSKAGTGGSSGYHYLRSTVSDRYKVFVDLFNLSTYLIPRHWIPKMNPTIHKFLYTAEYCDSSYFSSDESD
Protocol: Experimental method: TDO can oxidatively cleave the indole ring of tryptophan to form N-formylkynurenine. Referring to the method in the reference (Eddy W. Yue, et al. J. Med. Chem. 2009, 52, 7364-7367), a detection buffer containing 50 nM TDO, 10μM inhibitor, 200μM tryptophan, and the like were sequentially added thereto at room temperature. Due to the formation of N-formylkynurenine, the reaction rate was recorded by the increasing absorbance of the solution at 321 nm. IC50 values were calculated using Prism GraphPad software.

[5] = tested on: Lewis lung cancer; assay: Lewis lung cancer in mice, in vivo anti-tumor experiment; set-up: species or system C57BL/6J mice; settings: intraperitoneal 20 mg/Kg, 11 days
[6] = tested on: melanoma B16; assay: Repeated verification, melanoma B16 in mice experiment; assay type: in vivo, C57BL/6J mice; settings: intragastric 20 mg/kg once daily, 14 days
Protocol: The in vivo efficacy of compound was tested in three groups (6 in each group) of C57BL/6J mice bearing melanoma B16. CY-1-26 hydrochloride was intragastrically administered at 20 mg/kg (suspended in 0.5% sodium carboxymethyl cellulose solution), and 1-MT was a positive control (200 mg/kg, suspended in 0.5% sodium carboxymethyl cellulose solution), the blank control was 0.5% sodium carboxymethyl cellulose solution, all once daily dose. On the day of the first dose, the relevant indicators were observed, measured and recorded. At the end of the experiment, the tumor-bearing mice were sacrificed and the tumor pieces were dissected and weighed.
The tumor-bearing mice were administered by continuous intragastric administration for 14 days. The body weight of the animals in the drug-administered group was slightly slower than that of the negative control group. The animals were in good condition and no obvious side effects were observed.
After 14 days of administration, the animals were euthanized, the subcutaneous tumors were dissected, weighed, and the animals were dissected for gross observation.

[7] = tested on: melanoma B16; assay: Melanoma B16 in mice experiment; assay type: in vivo, C57BL/6J mice; settings: intragastric once daily, 10 days; CY-1-26 20 mg/kg, 1-MT 200 mg/kg
Protocol: The in vivo efficacy of compound was tested with C57BL/6J mice bearing melanoma B16. The intragastric administration was 20 mg/kg, and 1-MT was a positive control (200 mg/kg), which was once daily. The observation and measurement were started on the day of the first administration, and the relevant indicators were recorded. The tumor-bearing mice were sacrificed at the end of the experiment, and the tumor pieces were dissected and weighed.
The tumor-bearing mice were administered by continuous intragastric administration for 10 days. The body weight of the animals in the drug-administered group was slightly slower than that of the negative control group. The animals were in good condition and no obvious side effects were observed.
After 10 days of administration, the animals were euthanized, the subcutaneous tumors were dissected, weighed, and the animals were dissected for gross observation.

[8] = 20 nM IDO-1, 2 mM D-tryptophan, read-out: IDO-1 inhibitory activity, IC50
[9] = Table 1, comparison with tryptanthrins 5a, 5b, 5c, 5i, read-out: Comparison of inhibitory activity of the IDO1, IC50
[10] = compound at 10 μM, 50 nM TDO, 200 μM tryptophan

Row | SMILES | IC50 [3, 8] [nM] | other results
1 | O=C1c2cc(F)ccc2-n2c1nc1ccccc1c2=O |  | proliferation of T cells [1]: can promote the proliferation of T cells
2 | O=C1c2cc([N+](=O)[O-])ccc2-n2c1nc1cccnc1c2=O [8-nitro-1-aza-tryptanthrin] |  | activity in production of TNF-α [2]: did not exhibit activity
3 | O=C1c2cc(F)ccc2-n2c1nc1ncccc1c2=O [CY-1-2, 9-fluoropyrido[2′,3′:4,5]pyrimido[1,2-c]indole-5,11-dione] |  | inhibition at 10 µM [4, 10]: 44%
4 | O=C1c2cc(OC(F)(F)F)ccc2-n2c1nc1ncccc1c2=O [CY-1-3, 9-(trifluoromethoxy)pyrido[2′,3′:4,5]pyrimido[1,2-c]indole-5,11-dione] |  | inhibition at 10 µM [4, 10]: 16%
5 | O=C1c2cc([N+](=O)[O-])ccc2-n2c1nc1ncccc1c2=O [CY-1-4, 9-nitropyridine[2′,3′:4,5]pyrimido[1,2-c]indole-5,11-dione] |  | inhibition at 10 µM [4]: 97%
6 | O=C1c2cc(Cl)ccc2-n2c1nc1ncccc1c2=O [CY-1-5, 9-chloropyrido[2′,3′:4,5]pyrimido[1,2-c]indole-5,11-dione] |  | inhibition at 10 µM [4, 10]: 35%
7 | COc1ccc2c(c1)C(=O)c1nc3ncccc3c(=O)n1-2 [CY-1-6, 9-methoxypyrido[2′,3′:4,5]pyrimido[1,2-c]indole-5,11-dione] | 110 to 1000 | 
8 | Cc1ccc2c(c1)C(=O)c1nc3ncccc3c(=O)n1-2 [CY-1-7, 9-methylpyrido[2′,3′:4,5]pyrimido[1,2-c]indole-5,11-dione] | 110 to 1000 | IC50 [3, 9]: 100 to 1000 nM
9 | O=C1c2cc(Cl)ccc2-n2c1nc1cnccc1c2=O [CY-1-10, 9-chloropyrido[3′,4′: 4,5]pyrimido[1,2-α]indole-5,11-dione] | 110 to 1000 | inhibition at 10 µM [4]: 8%
10 | O=C1c2cc(F)ccc2-n2c1nc1cnccc1c2=O [CY-1-11, 9-fluoropyrido[3′,4′:4,5]pyrimido[1,2-α]indole-5,11-dione] | 110 to 1000 | IC50 [3, 9]: 100 to 1000 nM
11 | O=c1c2cccnc2nc2n1-c1ccccc1C2=NO [CY-1-12, 11-(hydroxyimino)pyrido[2′,3′:4,5]pyrimido[1,2-α]indol-5(11H)-one] | 1100 to 10000 | 
12 | COc1ccc2c(c1)C(=NO)c1nc3ncccc3c(=O)n1-2 [CY-1-15, 11-(hydroxyimino)-9-methoxypyrido[2′,3′:4,5]pyrimido[1,2-α]indole-5(11H)-one] | 1100 to 10000 | 
13 | CN(C)CCON=C1c2ccccc2-n2c1nc1ncccc1c2=O [CY-1-16, 11-((2-(dimethylamino)ethoxy)imino)pyrido[2′,3′:4,5]pyrimido[1,2-α]indole-5(11H)-one] | 110 to 1000 | 
14 | CN(C)CCON=C1c2cc([N+](=O)[O-])ccc2-n2c1nc1ncccc1c2=O [CY-1-17, 11-((2-(dimethylamino)ethoxy)imino)-9-nitropyrido[2′,3′:4,5]pyrimido[1,2-α]indol-5(11H)-one] |  | tumor inhibition rate (tumor weight) [5]: 51.8%; inhibition at 10 µM [4, 10]: 64%
15 | CN(C)CCON=C1c2cc(Cl)ccc2-n2c1nc1ncccc1c2=O [CY-1-18, 9-chloro-11-((2-(dimethylamino)ethoxy)imino)pyrido[2′,3′:4,5]pyrimido[1,2-α]indol-5(11H)-one] | 110 to 1000 | 
16 | CN(C)CCON=C1c2cc(F)ccc2-n2c1nc1ncccc1c2=O [CY-1-19, 11-((2-(dimethylamino)ethoxy)imino)-9-fluoropyrido[2′,3′:4,5]pyrimido[1,2-α]indol-5(11H)-one] | 110 to 1000 | 
17 | CN(C)CCCON=C1c2cc(Cl)ccc2-n2c1nc1ncccc1c2=O [CY-1-20, 9-chloro-11-((3-(dimethylamino)propoxy)imino)pyrido[2′,3′:4,5]pyrimido[1,2-α]indol-5(11H)-one] | 1100 to 10000 | 
18 | N=C(N)NN=C1c2cc([N+](=O)[O-])ccc2-n2c1nc1ncccc1c2=O [CY-1-23, 2-(9-nitro-5-oxopyrido[2′,3′:4,5]pyrimido[1,2-c]indol-11(5H)-ylidene)hydrazine-1-carboximidamide] |  | inhibition at 10 µM [4]: 86%
19 | CON=C1c2cc([N+](=O)[O-])ccc2-n2c1nc1ncccc1c2=O [CY-1-25, 11-(methoxyimino)-9-nitropyrido[2′,3′: 4,5]pyrimido[1,2-α]indol-5 (11H)-one] | 110 to 1000 | 
20 | CCON=C1c2cc([N+](=O)[O-])ccc2-n2c1nc1ncccc1c2=O [CY-1-26 hydrochloride] |  | tumor inhibition rate (tumor weight) [6]: 46.0%
21 | NC(=S)NN=C1c2cc([N+](=O)[O-])ccc2-n2c1nc1ncccc1c2=O [CY-1-29, 2-(9-nitro-5-oxopyrido[2′,3′:4,5]pyrimido[1,2-c]indol-11(5H)-ylidene)hydrazine-1-carbothioamide] |  | inhibition at 10 µM [4, 10]: 93%
22 | Cn1cc(CC(N)C(=O)O)c2ccccc21 (centres unmarked) [Compound 1-MT, reference compound] |  | tumor inhibition rate (tumor weight) [7]: 26.3%
23 | O=P1(N(CCCl)CCCl)NCCCO1 (centres unmarked) [cyclophosphamide, reference compound] |  | tumor inhibition rate (tumor weight) [5]: 29.9%

Continued, in another order:

Row | IC50 [3, 8] [nM] | SMILES | other results
24 | 110 to 1000 | O=C1c2ccccc2-n2c1nc1ncccc1c2=O [CY-1-1, pyrido[2′,3′:4,5]pyrimido[1,2-α]indole-5,11-dione] | IC50 [3, 9]: 100 to 1000 nM
25 | 110 to 1000 | O=C1c2ccccc2-n2c1nc1cnccc1c2=O [CY-1-8, pyrido[3′,4′:4,5]pyrimido[1,2-c]indole-5,11-dione] | IC50 [3, 9]: 100 to 1000 nM
26 | 1100 to 10000 | COc1ccc2c(c1)C(=O)c1nc3cnccc3c(=O)n1-2 [CY-1-9, 9-methoxypyrido[3′,4′:4,5]pyrimido[1,2-c]indole-5,11-dione] | 
27 | 110 to 1000 | O=c1c2cccnc2nc2n1-c1ccc(Cl)cc1C2=NO [CY-1-13, 9-chloro-11-(hydroxyimino)pyrido[2′,3′:4,5]pyrimido[1,2-α]indole-5(11H)-one] | inhibition at 10 µM [4, 10]: 6%
28 | 1100 to 10000 | Cc1ccc2c(c1)C(=NO)c1nc3ncccc3c(=O)n1-2 [CY-1-14, 11-(hydroxyimino)-9-methylpyrido[2′,3′: 4,5]pyrimido[1,2-α]indole-5 (11H)-one] | 
29 | 110 to 1000 | O=c1c2cccnc2nc2n1-c1ccc([N+](=O)[O-])cc1C2=NOCCO [CY-1-21, 11-((2-hydroxyethoxy)imino)-9-nitropyrido[2′,3′:4,5]pyrimido[1,2-α]indol-5(11H)-one] | 
30 | 110 to 1000 | O=c1c2cccnc2nc2n1-c1ccc([N+](=O)[O-])cc1C2=NOS(=O)(=O)O [CY-1-24, (((9-nitro-5-oxopyrido[2′,3′:4,5]pyrimido[1,2-α]indol-11(5H)-ylidene)amino)oxy) sulfonic acid] | 
31 | 1100 to 10000 | CCON=C1c2cc([N+](=O)[O-])ccc2-n2c1nc1ncccc1c2=O [CY-1-26, 11-(ethoxyimino)-9-nitropyrido[2′,3′:4,5]pyrimido[1,2-α]indol-5(11H)-one] | tumor inhibition rate (tumor weight) [7]: 33.0%
32 | 1100 to 10000 | C=CCON=C1c2cc([N+](=O)[O-])ccc2-n2c1nc1ncccc1c2=O [CY-1-27, 11-((allyloxy)imino)-9-nitropyrido[2′,3′:4,5]pyrimido[1,2-α]indol-5(11H)-one] | 
33 | 1100 to 10000 | COc1ccc2c(c1)C(=NNC(=S)N(C)C)c1nc3ncccc3c(=O)n1-2 [CY-1-30, 2-(9-methoxy-5-oxopyrido[2′,3′:4,5]pyrimido[1,2-α]indol-11(5H)-ylidene)-N,N-di methyl-hydrazine-1-carbothioamide] | 
